Experimental findings from PubChem BioAssay (NCI) are described below.

Test systems include IGROV1 ovarian; RPMI-8226 leukemia; MDA-MB-435; UACC-257 melanoma; SW-620 colon; MOLT-4 leukemia; M14 melanoma; SK-MEL-2 melanoma; T-47D breast; NCI-H23 lung.
What all share (test): DTP human tumour cell line panel, 48 h

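Following 48 hours of exposure in 96-well plates, responses at five concentrations were used to interpolate endpoints linearly. TGI marks complete inhibition of growth.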 *1 amine or outer side, *2 acyl side, *3 side chain or, on linkers, in order; H or OH if unused. Where a SMILES comes first, the peptide text is derived from it. Bridges are numbered along the chain shown (N, C = ends). Roman numbers before positions name the chains, in order. [ ]: non-standard residue; d: D form. Actinocin(9to1) = Cc1c2oc3c(C)ccc(C(=O)[*:1])c3nc-2c(C(=O)[*:2])c(N)c1=O; NMeH = CN[CH](Cc1c[nH]cn1)C(=O)O; Sar = CNCC(=O)O Where only a bound is given, the exact number is not on record here.

As to `C#C[C@]1(O)CC[C@H]2[C@@H]3CCC4=C/C(=N/NC(=O)c5cccc6c(=O)c7ccccc7[nH]c56)CCC4[C@H]3CC[C@@]21C` (stereo partly drawn), the total growth inhibition concentration (TGI) in the assay with IGROV1 ovarian, in the assay with RPMI-8226 leukemia, with MDA-MB-435, with UACC-257 melanoma, in the assay on SW-620 colon and in the assay with MOLT-4 leukemia was over 100 µM in each case. In addition, the TGI with M14 melanoma, in the assay with SK-MEL-2 melanoma, in the assay with T-47D breast and in the assay with NCI-H23 lung was over 100 µM throughout.
As for `CN1/C(=C/C=C/C=C/C=C2C(=O)c3ccccc3C2=O)C(C)(C)c2ccccc21`, the total growth inhibition concentration (TGI) is over 100 µM in the assay on IGROV1 ovarian; over 100 µM with RPMI-8226 leukemia; over 100 µM with MDA-MB-435; 54.1 µM with UACC-257 melanoma; over 100 µM in the assay with SW-620 colon; over 100 µM in the assay with M14 melanoma. The values for the total growth inhibition concentration (TGI) with SK-MEL-2 melanoma, in the assay with T-47D breast and in the assay on NCI-H23 lung were 66.3 µM, over 100 µM and over 100 µM, respectively.
As for `Cc1c2oc3c(C)ccc(C(=O)NC4C(=O)NC(C(C)C)C(=O)N5CCCC5C(=O)N(C)CC(=O)N(C)C(Cc5cnc[nH]5)C(=O)OC4C)c3nc-2c(C(=O)NC2C(=O)NC(C(C)C)C(=O)N3CCCC3C(=O)N(C)CC(=O)N(C)C(Cc3cnc[nH]3)C(=O)OC2C)c(N)c1=O` (stereo not drawn) (I: TVP[Sar][NMeH] / II: TVP[Sar][NMeH]; ester I:1-I:C, II:1-II:C; linker I:N-II:N via Actinocin(9to1); configuration not given here), the concentration for total growth inhibition (TGI) in the assay on IGROV1 ovarian, with RPMI-8226 leukemia, with MDA-MB-435, with UACC-257 melanoma, with SW-620 colon and with MOLT-4 leukemia was over 100 µM in each case. Also, the concentration for total growth inhibition (TGI) in the assay on M14 melanoma, in the assay with SK-MEL-2 melanoma, in the assay on T-47D breast and in the assay on NCI-H23 lung was over 100 µM throughout.
In the case of `CC(=O)n1cc(C2CC23N=C(c2ccccc2)OC3=O)c2ccccc21` (stereo not drawn), the TGI with IGROV1 ovarian came to 38.3 µM; in the assay with RPMI-8226 leukemia, 26.2 µM; in the assay on MDA-MB-435, 72.9 µM; in the assay on UACC-257 melanoma, 32.8 µM; with SW-620 colon, 56.7 µM; in the assay with M14 melanoma it was 34.9 µM. In addition, the concentration for total growth inhibition (TGI) with SK-MEL-2 melanoma is 44.5 µM; with T-47D breast it was over 100 µM; with NCI-H23 lung, 42 µM.
Consider `C[C@]12CC[C@H]3[C@@H](CCC4=CC(=O)C=C[C@@]43OC(=O)C(F)(F)F)[C@@H]1CCC2=O`, for which the concentration for total growth inhibition (TGI) in the assay on IGROV1 ovarian, in the assay on RPMI-8226 leukemia, in the assay with MDA-MB-435, in the assay with UACC-257 melanoma, in the assay with SW-620 colon and in the assay on MOLT-4 leukemia was over 100 µM in each case. The concentration for total growth inhibition (TGI) in the assay with M14 melanoma, with SK-MEL-2 melanoma, in the assay with T-47D breast and with NCI-H23 lung was over 100 µM throughout.
With `COc1cc(/C=C2\CC/C(=C\c3cc(OC)c(O)c(OC)c3)C2=O)cc(OC)c1O`, the TGI in the assay on IGROV1 ovarian was 3.19 µM; in the assay with RPMI-8226 leukemia it was 4.01 µM; in the assay on MDA-MB-435 it was 4.19 µM; with UACC-257 melanoma, over 100 µM; with SW-620 colon, over 100 µM; in the assay on MOLT-4 leukemia, 8 µM. The total growth inhibition concentration (TGI) is over 23.6 µM in the assay on M14 melanoma, 2.02 µM with SK-MEL-2 melanoma, 8.02 µM with T-47D breast and 5.72 µM in the assay with NCI-H23 lung.
For the compound `CN(Cc1cnc2nc(N)nc(N)c2n1)c1ccc(C(=O)NC23CC4CC(CC(C4)C2)C3)cc1`, the TGI is 21.8 µM with IGROV1 ovarian; 70.8 µM in the assay on RPMI-8226 leukemia; 31.6 µM in the assay with MDA-MB-435; 25.6 µM in the assay with UACC-257 melanoma; over 100 µM in the assay on SW-620 colon; 48.5 µM in the assay on MOLT-4 leukemia. In addition, the TGI is 18.4 µM in the assay with M14 melanoma, 23.6 µM in the assay on SK-MEL-2 melanoma, 39 µM in the assay with T-47D breast and 22.3 µM in the assay on NCI-H23 lung.
Consider `C[C@@H]1[C@@H](C)C(c2ccccc2)O[Si]1(C(C)(C)C)C(C)(C)C` (stereo partly drawn), for which the total growth inhibition concentration (TGI) in the assay on IGROV1 ovarian came to 31 µM; in the assay on RPMI-8226 leukemia, 50.3 µM; in the assay on MDA-MB-435, 76.3 µM; in the assay on UACC-257 melanoma it was 37.5 µM; with SW-620 colon, 34.9 µM; in the assay on MOLT-4 leukemia, 33.9 µM. For the same compound, the total growth inhibition concentration (TGI) in the assay on M14 melanoma was determined as 42.2 µM; in the assay on SK-MEL-2 melanoma it was 29.3 µM; with T-47D breast it was 37.2 µM; with NCI-H23 lung, 30.3 µM.
With `NCCCN(CCCCN(CCCN)C(=O)OCc1ccccc1)C(=O)OCc1ccccc1`, the TGI with IGROV1 ovarian, in the assay with RPMI-8226 leukemia, in the assay on MDA-MB-435, in the assay on UACC-257 melanoma, with SW-620 colon and in the assay on MOLT-4 leukemia was over 100 µM each time. The total growth inhibition concentration (TGI) with M14 melanoma, in the assay on SK-MEL-2 melanoma, in the assay on T-47D breast and in the assay with NCI-H23 lung was over 100 µM each time.
Take `C#CC(O)(c1nc2ccccc2s1)c1nc2ccccc2s1`: the TGI is 31.6 µM in the assay on IGROV1 ovarian; 76.8 µM with RPMI-8226 leukemia; 87.6 µM in the assay on MDA-MB-435; 88.5 µM in the assay on UACC-257 melanoma; over 100 µM with SW-620 colon; over 100 µM in the assay on MOLT-4 leukemia. The TGI with M14 melanoma is 32.8 µM; with SK-MEL-2 melanoma, 35.7 µM; in the assay with T-47D breast, 88.9 µM; in the assay with NCI-H23 lung, 56.1 µM.
Regarding `CC1=NN(c2cccc(Cl)c2)C2(C1=Cc1ccc(O)cc1)C(Cl)C(=O)N2c1nc2ccccc2s1` (stereo not drawn), the concentration for total growth inhibition (TGI) in the assay on IGROV1 ovarian is 65.9 µM; in the assay with RPMI-8226 leukemia it was 55.8 µM; in the assay with MDA-MB-435, 83.4 µM; in the assay with UACC-257 melanoma, over 100 µM; in the assay on SW-620 colon, 34.8 µM; with MOLT-4 leukemia, 44.2 µM. For the same compound, the total growth inhibition concentration (TGI) was 58.7 µM with M14 melanoma, 45.9 µM in the assay on SK-MEL-2 melanoma, 97.8 µM with T-47D breast and 38.4 µM in the assay with NCI-H23 lung.
Turning to `N#CC1(C#N)C(C#N)(C#N)C1(C#N)C(N)=O`, the TGI in the assay with IGROV1 ovarian, in the assay with RPMI-8226 leukemia, in the assay on MDA-MB-435, in the assay with UACC-257 melanoma, in the assay on SW-620 colon and with MOLT-4 leukemia was over 100 µM each time. Moreover, the total growth inhibition concentration (TGI) in the assay on M14 melanoma, in the assay with SK-MEL-2 melanoma, in the assay with T-47D breast and with NCI-H23 lung was over 100 µM each time.
Turning to `CC1C(NNC(N)=O)Oc2cc3c(cc2C1c1ccccc1O)OCO3` (stereo not drawn), the concentration for total growth inhibition (TGI) in the assay on IGROV1 ovarian is 86.4 µM; in the assay with RPMI-8226 leukemia, 78.6 µM; in the assay on MDA-MB-435, 48 µM; with UACC-257 melanoma, over 100 µM; in the assay with SW-620 colon, 32.8 µM; in the assay on MOLT-4 leukemia, over 100 µM. Besides, the TGI in the assay with M14 melanoma, in the assay with SK-MEL-2 melanoma, in the assay with T-47D breast and in the assay on NCI-H23 lung was over 100 µM each time.

A word on the TGI: it is the concentration giving total growth inhibition. High values mean lower sensitivity of the cells, low ones greater sensitivity of the cells.
